# Tested on: Survivin peptides-specific T cell responses
# Test: T cell immunogenicity in mouse strains, ex vivo IFN-γ ELISpot on total splenocytes
# Settings: splenocytes re-stimulated with the individual SVX-1 peptides
# Description: T cell immunogenicity of the mixture and individual Survivin derived polypeptides (S1, S2 and S3) was evaluated in different mouse strains (C57BL/6 (H2^b); BALB/c (H2^d) and CBA (H2^k)) and in the pre-clinical mouse model HLA-DRB1*0101, HLA-A*0201 (with α3 from D^b), H-2^/ transgenic mice (Tg HLA-A2/DR1). The objective of this study was to select the optimal genetic background to further investigate the immunogenicity and therapeutic efficacy of the SVX-1 vaccine composes of an equimolar mixture of these 3 Survivin LSPs.
# Six (6) to ten (10) weeks old female C57BL/6, BALB/c, and CBA mice were obtained from Charles River (Saint-Germain-Nuelles, France).
# The transgenic HLA-A2/DR1 mice, previously described (Pajot et al. 2004), were bred and maintained under specific pathogen-free conditions in an animal facility. […] One week after the last immunization (D21), spleen cells of immunized mice were harvested, and the induction of Survivin peptides-specific T cell responses was detected ex vivo using IFN-γ ELISpot assay on the total splenocytes (2×10^5 cells) re-stimulated overnight with the mix of peptides or the individual peptides. […]
sequence,measurement,value
HRISTFKNWPFLEGCACT (alpha-isoform survivin S1 positions 17-34) [18 amino acid peptide consisting of wild type Survivin amino acids 17-34],T cell responses against individual peptides in CBA mice,mainly directed against the S1 peptides
